This note sets out measurements from ChEMBL document CHEMBL2401704, “Inhibition of rhodesain as a novel therapeutic modality for human African trypanosomiasis” (J Med Chem, 2013).

Values after ≈ are worked out from the molar mass of the structure shown. Residues, ends and D or L forms follow the SMILES beside them. *: point of attachment. Cbz = O=C(OCc1ccccc1)* Some results are limits rather than exact numbers.

For data set [1], the system named is Trypanosoma brucei brucei. The data set is described as follows: Antitrypanosomal activity against blood stream form of Trypanosoma brucei brucei. The data set is classed as functional, organism-based. The note with it: for EC50: read-out: ED50 (the source's name).
A short description of data set [2]: Selectivity index, ratio of ED50 for human HL60 cells to ED50 for Trypanosoma brucei brucei. The data set is classed as toxicity, cell-based, HL-60. The note with it: read-out: Ratio ED50.
Data set [3] can be described thus: Cytotoxicity against human HL60 cells. The class given is cell-based, HL-60. The note with it: for CC50: read-out: ED50 (the source's name); for MCC: read-out: MIC.
In a further data set the test system is Trypanosoma brucei. The data set is described as follows: Inhibition of Trypanosoma brucei rhodesain assessed as second order rate constant.
The target of the next data set is T1, Papain (Carica papaya, UniProt P00784).
T1 sequence (P00784 whole entry): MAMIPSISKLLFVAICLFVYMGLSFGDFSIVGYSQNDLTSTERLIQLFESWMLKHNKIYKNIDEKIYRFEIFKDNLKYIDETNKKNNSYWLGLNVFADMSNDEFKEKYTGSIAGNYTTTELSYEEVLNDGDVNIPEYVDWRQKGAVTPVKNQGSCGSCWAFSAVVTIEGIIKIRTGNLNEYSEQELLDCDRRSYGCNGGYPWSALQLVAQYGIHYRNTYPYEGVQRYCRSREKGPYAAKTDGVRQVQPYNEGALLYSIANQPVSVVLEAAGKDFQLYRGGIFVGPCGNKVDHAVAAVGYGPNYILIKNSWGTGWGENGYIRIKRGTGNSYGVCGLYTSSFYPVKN
Kind of data set: Inhibition of papaya papain.

For a further data set, the target named is Trypsin (Homo sapiens, UniProt P07477+P07478+P35030). Kind of data set: Inhibition of trypsin (unknown origin). The data set is classed as protein assay.
Data set [4] in a line: Inhibition of Trypanosoma brucei rhodesain.
Data set [5] in a line: Inhibition of cathepsin B (unknown origin). On the set-up: species or system Homo sapiens.
Another data set concerns the target Cruzipain (Trypanosoma cruzi, UniProt P25779). Kind of data set: Inhibition of Trypanosoma cruzi cruzain.
Data set [6] relates to Trypanosoma brucei brucei. The data set is described as follows: Antitrypanosomal activity against procyclic form of Trypanosoma brucei brucei. The note with it: read-out: ED50 (the source's name). The class given is functional.
The nature of data set [7]: Inhibition of Trypanosoma brucei recombinant rhodesain.
A short description of data set [8]: Oral bioavailability in Sprague-Dawley rat. The data set is classed as ADME, organism-based. The note with it: in vivo.

Sequence of Cruzipain (P25779 whole entry): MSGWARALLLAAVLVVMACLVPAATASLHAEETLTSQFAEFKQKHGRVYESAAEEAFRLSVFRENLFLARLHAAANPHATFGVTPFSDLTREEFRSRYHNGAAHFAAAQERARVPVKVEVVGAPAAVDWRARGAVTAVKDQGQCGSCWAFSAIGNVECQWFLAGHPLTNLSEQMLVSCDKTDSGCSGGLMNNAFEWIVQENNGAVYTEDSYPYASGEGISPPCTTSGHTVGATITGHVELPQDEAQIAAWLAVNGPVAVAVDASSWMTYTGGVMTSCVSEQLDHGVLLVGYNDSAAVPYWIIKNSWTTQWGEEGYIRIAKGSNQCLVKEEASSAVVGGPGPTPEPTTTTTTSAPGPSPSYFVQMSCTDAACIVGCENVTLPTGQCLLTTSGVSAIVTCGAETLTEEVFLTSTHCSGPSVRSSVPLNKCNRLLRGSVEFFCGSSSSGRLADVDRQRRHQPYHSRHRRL

Turning to `CC[C@H](C)[C@H](NS(=O)(=O)c1cccc2ccccc12)C(=O)N[C@H](C=O)Cc1c[nH]c2ccccc12`, in data set [1], the MIC (commonly the least concentration at which growth counts as inhibited) came out at 10 µM (≈ 4.92 µg/mL) and the EC50 turned out to be 18 nM. For the same compound, in data set [2], the selectivity ratio is 1150. Also, in data set [3], the CC50 was 21 µM and the MCC was more than 100 µM. In addition, the K in the data set with Trypanosoma brucei stood at 3.54 ×10⁷ /M/min.

As for `Cn1nc(C(F)(F)F)cc1-c1ccc(NC(=O)Nc2cccc(C(F)(F)F)c2)s1`, the IC50 – broadly, the point on the concentration scale where inhibition reaches its midpoint – is more than 50 µM against Papain; more than 50 µM at Trypsin; 3000 nM in data set [4]; 11 µM in data set [5]; 3100 nM against Cruzipain.

For the compound `CN(C(=O)[C@H](Cc1ccccc1)NC(=O)OCc1ccccc1)N(C#N)Cc1ccccc1`, the figures for the EC50 in data set [1] and in data set [6] were 1100 nM and 0.4 µM, respectively. Moreover, in data set [7], the IC50 was found to be 0.19 nM.

`Cc1ccc(C(=O)Nc2ccc(S(=O)(=O)O)c3cc(S(=O)(=O)O)cc(S(=O)(=O)O)c23)cc1NC(=O)c1cccc(NC(=O)Nc2cccc(C(=O)Nc3cc(C(=O)Nc4ccc(S(=O)(=O)O)c5cc(S(=O)(=O)O)cc(S(=O)(=O)O)c45)ccc3C)c2)c1` [SURAMIN]: the EC50 in [1] was determined as 130 nM. Besides, the selectivity ratio in [2] amounted to 1900.

Turning to `CN1CCN(C(=O)N[C@@H](Cc2ccccc2)C(=O)N[C@H](/C=C/S(=O)(=O)c2ccccc2)CCc2ccccc2)CC1` [K-777], the EC50 in data set [1] turned out to be 900 nM; in data set [6], 5.8 µM. In addition, the K in the data set with Trypanosoma brucei worked out at 9 ×10⁶ /M/min. The IC50 in data set [7] is 0.35 nM. Besides, in [8], the bioavailability (in general, dose-corrected exposure relative to a reference, in per cent) is 19.9%.

As to `O=C(N[C@H](/C=C/S(=O)(=O)c1ccccc1)CCc1ccccc1)[C@H](Cc1ccccc1)NC(=O)N1CCOCC1`, the EC50 turned out to be 5600 nM in data set [1] and 7.3 µM in data set [6]. Besides, the IC50 in [7] was 0.36 nM. Further, in [8], the bioavailability is 3%.

For `O=C[C@H](Cc1ccc(O)cc1)NC(=O)[C@H](Cc1ccccc1)NC(=O)OCc1ccccc1` (Cbz-Phe-Tyr-aldehyde), in data set [1], the minimal inhibitory concentration (MIC) was 100 µM (≈ 44.7 µg/mL) and the EC50 turned out to be 45 nM. In data set [2], the selectivity ratio was found to be 482. Besides, in data set [3], the CC50 came out at 21.5 µM and the MCC is more than 100 µM. Also, in the data set on Trypanosoma brucei, the K is 1.38 ×10⁸ /M/min.

With `CN(C(=O)[C@H](Cc1ccccc1)NC(=O)OCc1ccccc1)N(C#N)CCCc1ccccc1`, the EC50 worked out at 1200 nM in data set [1] and 0.7 µM in data set [6]. For the same compound, the IC50 in [7] is 2 nM.

As to `CCOC(=O)c1ccc(NC(=S)NC(=O)c2ccc(Cl)c(Cl)c2)cc1`, the IC50 on Papain is more than 50 µM; against Trypsin it was more than 50 µM; in data set [4], 2000 nM; in data set [5] it was 10.7 µM; against Cruzipain it was 1900 nM.

As for `O=C(Nc1ccc(Cl)cc1)Nc1csc(-c2ccc(C(F)(F)F)cc2)n1`, the IC50 is more than 50 µM against Papain; more than 50 µM on Trypsin; 2000 nM in [4]; 10.8 µM in data set [5]; 1200 nM against Cruzipain.

As for `CS(=O)(=O)c1sc(C(=O)NC(=S)Nc2ccc(OC(F)(F)F)cc2)c2ccccc12`, the IC50 at Papain is more than 50 µM; on Trypsin, more than 50 µM; in data set [4], 4200 nM; in [5], 11 µM; on Cruzipain, 6900 nM.
